Measurements taken from US20220241314A1, “COMPOSITIONS AND METHODS FOR TREATMENT OF HEPATITIS B VIRUS INFECTION” (priority 2019, published 2022).
{ppp} = triphosphate

Tests used:
IRF3 = experiment: Immunofluorescence analysis of IRF3 translocation; assay type: cell-based, human; settings: HepG2-hNTCP cells, 24 hours; F7 10 μM; poly-U/UC PAMP or X-RNA 200 ng/ml in liposome
HBV = HBV replication infection/treatment time course over 20 dpi; assay type: cell-based, HBV (Genotype D); settings: HepG2-hNTCP; for production of pgRNA (RT-qPCR): 6 dpi to 20 dpi; for capsid-associated intracellular HBV DNA (RC, DL, SS DNA), Southern blot: 6 to 20 dpi; for production of cccDNA over time course: F7 10 μM or poly-U/UC PAMP 100 ng/ml from 24 hours after infection, within 2 dpi; for extracellular HBV DNA (qPCR) / secreted HBsAg in culture supernatant (ELISA): infection/treatment time course
Protocol: FIGS. 9A-9E illustrate kinetics of HBV replication in parallel cultures of cells during treatment with F7 or poly-U/UC PAMP. (9A) HepG2-hNTCP cells were infected with HBV at a moi of 1000 Geq/cell. After 24 hours the cells were treated with F7 (10 μM) (upper), or 100 ng/ml X RNA or 100 ng/ml poly-U/UC PAMP (lower). Cells were harvested at each time point, Hirt supernatants prepared and subjected to Southern blot analysis. (B) HBV pgRNA was analyzed by RT-qPCR. Values from 20 Dpi of ‘HBV only’ was set to 100% for RT-PCR analysis. Data was presented as mean±standard deviations (SD), ***P<0.001, ****P 21 0.0001; and ns=non-significant (9C) HBV intracellular capsid-associated DNA from cells treated with 10 uM F7 (upper) or 100 ng/ml XRNA or poly-U/UC PAMP (lower) was analyzed by Southern blot. (9D) Secreted HBsAg from HBV-infected cells treated with F7 (upper) or poly-U/UC (lower) was detected by ELISA. (9E) Extracellular HBV-DNA was measured by qPCR from cells treated with 10 uM (left) or 100 ng/ml XRNA or poly-U/UC PAMP (right). Data are presented as mean±standard deviation (SD) from three independent experiments. ***P 0.0002.
To further determine how the activation of IRF3 impacts the HBV replication cycle, the expression of viral DNA, viral RNA, extracellular HBV DNAs and secreted HBsAg were analyzed over an infection/treatment time course. […] The level of capsid-associated intracellular HBV DNA intermediates of reverse transcription produced over the HBV infection/treatment time course were also measured.
HBV infection HBV (Genotype D) was purified from the supernatant of HepAD38 cells by PEG concentration and subsequent sucrose gradient, as described previously (Ko, C., et al. (2014). DDX3 DEAD-Box RNA Helicase Is a Host Factor That Restricts Hepatitis B Virus Replication at the Transcriptional Level. Journal of Virology 88, 13689-13698; Watashi, K., et al. (2013), supra). For HBV infection cells were seeded into collagen-coated plates. One day later, the cells were infected with HBV in DMEM containing 4% polyethylene glycol 8000 (PEG-8000). The multiplicities of infection (expressed as virus genome equivalent/cell) are indicated in each Figure Legend. The inocula were removed 24 hours later, and the infected cultures were maintained in complete DMEM containing 2.5% DMSO until harvesting, as described previously (Ni, Y., et al. (2014). Hepatitis B and D viruses exploit sodium taurocholate co-transporting polypeptide for species-specific entry into hepatocytes. Gastroenterology 146, 1070-1083).
Reverse transcription quantitative real time qPCR (RT-qPCR) analysis: Total cellular RNAs were extracted from cells using TRIZOL reagent and the manufacturers protocol (Invitrogen). cDNA was synthesized from the purified RNA by both random and oligo (dT) priming using iScript select cDNA synthesis kit (Biorad, Inc.). For HBV cccDNA expression analysis, total DNA was extracted using the DNeasy kit (QIAGEN). For selective cccDNA PCR analysis, isolated DNAs were treated with 10 Units of T5 exonuclease (NEB) for 30 min in 10 μl of reaction volume in 37° C., followed by heat-inactivation at 95° C. for 5 min and 4-fold dilution with Nuclease-free water. For extra-cellular HBV DNA quantification, an external HBV plasmid standard was used to program the PCR (Ko, C., et al. (2018), supra). Relative mRNA levels of all target genes were quantified by RT-qPCR performed using the ΔΔCT method, and expression levels were normalized to house-keeping genes. Real-time PCR assays were carried out using the SYBR green method (Applied Biosystems) performed using an Applied Biosystems 7300 thermocycler. […]

[1] = tested on: innate immune response genes; experiment: Innate immune gene mRNA expression (RT-qPCR); assay type: cell-based, human; settings: HepG2-hNTCP cells, 24 and 72 hours

Row | Molecule | innate immune activation marked by IRF3 translocation into the nucleus (IRF3) | production of pgRNA (RT-qPCR) (HBV) | capsid-associated intracellular HBV DNA (RC, DL, SS DNA), Southern blot (HBV) | production of cccDNA over time course (HBV) | extracellular HBV DNA (qPCR) (HBV) | secreted HBsAg in culture supernatant (ELISA) (HBV) | mRNA expression of innate immune response genes (IFNs, ISGs, IRF3-target genes) [1]
1 | O=C(Nc1ccc2nc(NC(=O)c3ccc4ccccc4c3)sc2c1)c1ccccc1 [F7, N-(6-benzamido-1,3-benzothiazol-2-yl)naphthalene-2-carboxamide] | specifically induced innate immune activation | significantly suppressed | markedly decreased the levels of these DNA species | markedly suppressed | reduction of extracellular HBV DNA | significant reduction in the level of secreted HBsAg | induced only IRF3-target gene expression
2 | poly-U/UC PAMP: ~100 nt PAMP motif from the HCV genome comprising 5′ppp and the poly U/UC region, recognized by RIG-I; formulated in liposome (nucleic acid, RNA, 5' {ppp}, backbone and methylation of C not given here; formulated in liposome, ~100 nt PAMP motif from the HCV genome comprising 5′ppp and the poly U/UC region, recognized by RIG-I; formulated in liposome) GGCCAUCCUGUUUUUUUCCCUUUUUUUUUUUCUUUUUUUUUUUUUUUUUUUUUUUUUUUUUUUUUUCUCCUUUUUUUUUCCUCUUUUUUUCCUUUUCUUUCCUUU | specifically induced innate immune activation | significantly suppressed | markedly decreased the levels of these DNA species | markedly suppressed | reduction of extracellular HBV DNA | significant reduction in the level of secreted HBsAg | induced type I and type III IFN and ISG expression
